Measured values: ChEMBL document CHEMBL1201862, “PubChem BioAssay data set” (2004)
Activity calls are given as the source filed them.

Experiments:
[1] = A549 cell cytotoxicity, dose response, cytotoxicity control, plate reader, cherry-pick, antagonist series (AID 743412); assay type: functional, cell-based
[2] = biological target: T1, Sentrin-specific protease 6 (Homo sapiens, UniProt Q9GZR1); test: SAR Analysis of small molecule inhibitors of Sentrin-specific protease 6 (SENP6) using a Luminescent assay. [Related pubchem assays (depositor defined):AID2582, AID2599]; assay type: functional
T1 sequence (Q9GZR1 whole entry): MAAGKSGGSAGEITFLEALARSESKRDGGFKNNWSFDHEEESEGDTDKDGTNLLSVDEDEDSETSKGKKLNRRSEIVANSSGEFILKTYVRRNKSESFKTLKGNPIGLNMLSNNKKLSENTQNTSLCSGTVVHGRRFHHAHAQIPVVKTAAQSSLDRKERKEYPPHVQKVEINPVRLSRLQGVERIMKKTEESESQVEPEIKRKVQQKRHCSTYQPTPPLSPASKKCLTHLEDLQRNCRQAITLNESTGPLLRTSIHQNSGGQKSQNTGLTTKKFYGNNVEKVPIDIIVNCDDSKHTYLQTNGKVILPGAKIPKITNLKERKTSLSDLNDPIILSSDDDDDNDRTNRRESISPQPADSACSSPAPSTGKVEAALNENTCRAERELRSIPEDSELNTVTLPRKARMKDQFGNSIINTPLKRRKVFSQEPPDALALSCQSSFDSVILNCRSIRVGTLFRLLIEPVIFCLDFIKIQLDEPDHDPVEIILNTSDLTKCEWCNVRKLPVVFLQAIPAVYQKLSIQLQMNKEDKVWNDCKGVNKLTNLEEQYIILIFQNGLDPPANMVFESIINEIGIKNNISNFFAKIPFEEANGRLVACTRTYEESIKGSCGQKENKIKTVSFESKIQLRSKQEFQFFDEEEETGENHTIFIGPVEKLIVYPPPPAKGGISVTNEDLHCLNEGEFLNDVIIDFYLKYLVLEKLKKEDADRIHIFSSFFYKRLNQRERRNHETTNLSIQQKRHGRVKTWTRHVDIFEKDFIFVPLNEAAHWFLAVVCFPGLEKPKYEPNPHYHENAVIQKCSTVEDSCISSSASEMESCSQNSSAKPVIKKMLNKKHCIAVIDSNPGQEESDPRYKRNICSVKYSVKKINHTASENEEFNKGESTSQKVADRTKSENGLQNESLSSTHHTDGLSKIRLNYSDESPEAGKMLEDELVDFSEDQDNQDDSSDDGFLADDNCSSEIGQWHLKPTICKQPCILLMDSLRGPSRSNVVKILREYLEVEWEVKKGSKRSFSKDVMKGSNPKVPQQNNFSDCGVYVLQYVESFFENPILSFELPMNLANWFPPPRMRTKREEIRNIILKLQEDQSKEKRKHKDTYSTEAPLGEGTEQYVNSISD

[3] = blockade of melanocortin 4 receptor signaling – cell-based, plate reader, cherry pick, counter-screen for LGR2 antagonist project, dose response (AID 743444); assay type: functional;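 also: transfected HEK 293 cells stimulated with alpha-MSH peptide; potency of inhibitors of the alpha-MSH evoked signal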
HEK293 [4] = test: cells; assay type: functional, cell-based; details: Homo sapiens
HEK293 [5] = test: NOD2 signaling inhibitors in MDP-stimulated cells, cell-based, uHTS, luminescence (AID 2001); assay type: functional; details: Homo sapiens
[6] = biological target: Tyrosine-protein kinase Lck (Homo sapiens, UniProt P06239); assay type: functional;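 also: lck was assayed as one member of a kinase panel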
[7] = biological target: Protein kinase C gamma type (Homo sapiens, UniProt P05129); assay type: functional
[8] = biological target: Serine/threonine-protein kinase PAK 1 (Homo sapiens, UniProt Q13153); assay type: functional
[9] = biological target: ALK tyrosine kinase receptor (Homo sapiens, UniProt Q9UM73); assay type: functional;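 also: ALK tested as one member of a kinase panel screen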
[10] = biological target: Dual specificity protein kinase CLK4 (Homo sapiens, UniProt Q9HAZ1); assay type: functional
[11] = biological target: Serine/threonine-protein kinase D2 (Homo sapiens, UniProt Q9BZL6); assay type: functional;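 also: measured against PRKD2 as one member of a kinome-wide kinase profiling panel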
[12] = biological target: Serine/threonine-protein kinase 17A (Homo sapiens, UniProt Q9UEE5); assay type: functional
[13] = biological target: Calcium/calmodulin-dependent protein kinase type 1 (Homo sapiens, UniProt Q14012); assay type: functional
[14] = biological target: Serine/threonine-protein kinase TBK1 (Homo sapiens, UniProt Q9UHD2); test: Navigating the Kinome. Panel member name: TBK1; assay type: functional
[15] = biological target: Serine/threonine-protein kinase DCLK1 (Homo sapiens, UniProt O15075); assay type: functional;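 also: affinity for DCLK1 (listed as DCAMKL1) measured as one member of a kinome-wide kinase profiling panel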
[16] = biological target: Casein kinase I isoform alpha (Homo sapiens, UniProt P48729); assay type: functional
[17] = biological target: cGMP-dependent protein kinase 1 (Homo sapiens, UniProt Q13976); assay type: functional;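 also: value from a kinome panel screen with PRKG1 as the panel member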
[18] = biological target: Tyrosine-protein kinase Fyn (Homo sapiens, UniProt P06241); assay type: functional
[19] = biological target: Serine/threonine-protein kinase Chk1 (Homo sapiens, UniProt O14757); assay type: functional;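 also: measured as one member of a kinome-wide kinase profiling panel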
[20] = biological target: Serine/threonine-protein kinase Nek4 (Homo sapiens, UniProt P51957); assay type: functional
[21] = biological target: MAP kinase-activated protein kinase 2 (Homo sapiens, UniProt P49137); assay type: functional;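 also: measured as one member of a kinome-wide kinase panel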
[22] = biological target: Testis-specific serine/threonine-protein kinase 1 (Homo sapiens, UniProt Q9BXA7); assay type: functional
[23] = biological target: Cyclin-dependent kinase 1 (Homo sapiens, UniProt P06493); assay type: functional;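 also: Kinome-wide panel profiling, with the target listed as panel member CDC2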
[24] = biological target: High affinity nerve growth factor receptor (Homo sapiens, UniProt P04629); assay type: functional;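 also: NTRK1 tested as one member of a kinome-wide profiling panel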
[25] = biological target: Proto-oncogene tyrosine-protein kinase receptor Ret (Homo sapiens, UniProt P07949); assay type: functional;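 also: measured within a kinome-wide profiling panel, RET as the panel member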
[26] = biological target: Tyrosine-protein kinase ABL1 (Homo sapiens, UniProt P00519); assay type: functional
BJ = test: cells; assay type: functional, cell-based; details: Homo sapiens
[27] = biological target: Delta-type opioid receptor (Homo sapiens, UniProt P41143); test: HTS Image-Based Screen for Agonists of the DOR Receptor. [Related pubchem assays (depositor defined):AID1777, AID1786, AID2133]; assay type: functional
Chain of Delta-type opioid receptor (P41143 whole entry): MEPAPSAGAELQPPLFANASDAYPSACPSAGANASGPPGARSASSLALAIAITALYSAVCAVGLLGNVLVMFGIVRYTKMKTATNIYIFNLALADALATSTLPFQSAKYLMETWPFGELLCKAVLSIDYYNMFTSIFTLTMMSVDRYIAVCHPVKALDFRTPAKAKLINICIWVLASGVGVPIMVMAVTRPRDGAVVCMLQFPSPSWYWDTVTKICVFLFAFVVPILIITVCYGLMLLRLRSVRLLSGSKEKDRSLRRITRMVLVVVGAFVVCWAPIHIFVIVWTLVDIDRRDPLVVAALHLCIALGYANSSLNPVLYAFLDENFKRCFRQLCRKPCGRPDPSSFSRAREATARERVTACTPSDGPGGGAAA

Chain of Serine/threonine-protein kinase Chk1 (O14757 whole entry): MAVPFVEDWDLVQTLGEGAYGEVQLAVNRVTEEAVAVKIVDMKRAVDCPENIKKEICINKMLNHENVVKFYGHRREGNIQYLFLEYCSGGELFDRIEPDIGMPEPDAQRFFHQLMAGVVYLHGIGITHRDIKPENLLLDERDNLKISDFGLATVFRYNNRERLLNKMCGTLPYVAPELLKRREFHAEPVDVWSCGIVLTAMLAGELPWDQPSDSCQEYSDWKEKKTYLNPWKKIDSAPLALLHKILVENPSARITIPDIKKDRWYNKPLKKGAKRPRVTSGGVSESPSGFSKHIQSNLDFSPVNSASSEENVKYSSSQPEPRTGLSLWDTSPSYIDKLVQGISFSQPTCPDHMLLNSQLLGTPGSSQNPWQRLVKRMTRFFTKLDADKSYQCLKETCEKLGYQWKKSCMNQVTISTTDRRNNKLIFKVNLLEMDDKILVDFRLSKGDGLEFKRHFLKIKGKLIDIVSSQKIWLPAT
Chain of MAP kinase-activated protein kinase 2 (P49137 whole entry): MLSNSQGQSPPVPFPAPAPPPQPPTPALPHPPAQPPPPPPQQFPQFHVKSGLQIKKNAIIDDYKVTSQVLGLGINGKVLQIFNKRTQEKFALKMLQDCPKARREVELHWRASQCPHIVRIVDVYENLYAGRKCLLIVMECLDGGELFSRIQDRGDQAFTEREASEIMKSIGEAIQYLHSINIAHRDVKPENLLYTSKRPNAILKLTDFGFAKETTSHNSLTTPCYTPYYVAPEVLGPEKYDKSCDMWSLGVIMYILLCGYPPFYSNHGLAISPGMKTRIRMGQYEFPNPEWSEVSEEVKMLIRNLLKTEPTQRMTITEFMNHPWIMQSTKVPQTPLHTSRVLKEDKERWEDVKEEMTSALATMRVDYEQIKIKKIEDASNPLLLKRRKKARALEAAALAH
Chain of Cyclin-dependent kinase 1 (P06493 whole entry): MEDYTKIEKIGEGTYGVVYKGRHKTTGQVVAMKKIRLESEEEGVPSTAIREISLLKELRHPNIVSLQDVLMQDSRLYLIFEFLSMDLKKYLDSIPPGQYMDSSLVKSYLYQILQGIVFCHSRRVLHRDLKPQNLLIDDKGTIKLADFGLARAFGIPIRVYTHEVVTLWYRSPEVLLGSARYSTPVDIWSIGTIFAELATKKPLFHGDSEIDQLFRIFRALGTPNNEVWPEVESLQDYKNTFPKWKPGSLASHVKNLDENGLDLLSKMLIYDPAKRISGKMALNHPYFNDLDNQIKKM
Chain of Serine/threonine-protein kinase DCLK1 (O15075 whole entry, canonical isoform): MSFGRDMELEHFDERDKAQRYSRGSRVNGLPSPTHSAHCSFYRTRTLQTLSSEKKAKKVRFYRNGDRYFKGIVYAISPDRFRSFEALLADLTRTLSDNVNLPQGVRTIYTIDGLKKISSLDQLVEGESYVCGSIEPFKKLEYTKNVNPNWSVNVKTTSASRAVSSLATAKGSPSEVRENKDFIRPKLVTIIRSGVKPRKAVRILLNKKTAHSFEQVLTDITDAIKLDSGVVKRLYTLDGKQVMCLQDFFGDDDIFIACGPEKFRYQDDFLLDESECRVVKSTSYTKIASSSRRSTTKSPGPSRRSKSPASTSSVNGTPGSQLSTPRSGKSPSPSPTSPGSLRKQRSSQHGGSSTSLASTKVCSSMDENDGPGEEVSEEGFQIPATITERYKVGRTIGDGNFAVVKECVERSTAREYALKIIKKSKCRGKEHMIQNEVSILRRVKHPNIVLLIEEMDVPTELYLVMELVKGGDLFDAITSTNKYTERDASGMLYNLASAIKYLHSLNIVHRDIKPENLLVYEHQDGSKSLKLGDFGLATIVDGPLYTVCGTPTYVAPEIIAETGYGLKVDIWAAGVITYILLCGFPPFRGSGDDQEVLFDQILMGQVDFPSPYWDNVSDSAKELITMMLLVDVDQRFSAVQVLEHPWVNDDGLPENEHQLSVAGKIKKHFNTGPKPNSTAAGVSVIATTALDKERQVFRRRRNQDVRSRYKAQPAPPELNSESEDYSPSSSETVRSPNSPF
Chain of Proto-oncogene tyrosine-protein kinase receptor Ret (P07949 whole entry): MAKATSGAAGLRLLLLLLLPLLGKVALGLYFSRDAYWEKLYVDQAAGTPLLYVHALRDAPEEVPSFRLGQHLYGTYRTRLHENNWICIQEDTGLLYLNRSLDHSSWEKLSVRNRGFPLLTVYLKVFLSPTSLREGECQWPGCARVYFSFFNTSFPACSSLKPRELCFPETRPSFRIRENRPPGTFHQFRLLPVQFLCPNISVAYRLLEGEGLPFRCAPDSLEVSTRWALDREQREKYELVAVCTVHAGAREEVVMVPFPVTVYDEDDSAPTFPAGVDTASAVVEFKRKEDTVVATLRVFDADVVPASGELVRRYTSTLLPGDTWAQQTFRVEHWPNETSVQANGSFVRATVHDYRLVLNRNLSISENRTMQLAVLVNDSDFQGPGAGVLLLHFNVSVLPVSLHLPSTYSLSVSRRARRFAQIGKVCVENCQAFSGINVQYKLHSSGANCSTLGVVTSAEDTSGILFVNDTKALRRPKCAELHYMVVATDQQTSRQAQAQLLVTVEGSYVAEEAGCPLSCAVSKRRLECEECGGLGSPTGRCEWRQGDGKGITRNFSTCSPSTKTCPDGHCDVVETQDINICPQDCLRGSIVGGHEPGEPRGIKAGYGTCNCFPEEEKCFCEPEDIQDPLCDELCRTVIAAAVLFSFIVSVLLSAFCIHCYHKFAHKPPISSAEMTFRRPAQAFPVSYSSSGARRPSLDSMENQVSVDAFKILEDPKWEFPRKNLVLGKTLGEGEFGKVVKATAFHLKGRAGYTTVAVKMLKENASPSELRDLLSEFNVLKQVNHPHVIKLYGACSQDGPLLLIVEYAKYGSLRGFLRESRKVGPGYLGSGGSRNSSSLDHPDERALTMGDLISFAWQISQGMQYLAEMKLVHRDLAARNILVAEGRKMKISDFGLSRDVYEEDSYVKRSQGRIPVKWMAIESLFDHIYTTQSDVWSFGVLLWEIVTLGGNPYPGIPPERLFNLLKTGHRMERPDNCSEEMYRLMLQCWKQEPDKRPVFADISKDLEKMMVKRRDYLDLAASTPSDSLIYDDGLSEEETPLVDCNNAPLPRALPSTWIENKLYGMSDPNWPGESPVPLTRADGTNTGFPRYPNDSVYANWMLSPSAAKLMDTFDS
Chain of ALK tyrosine kinase receptor (Q9UM73 whole entry): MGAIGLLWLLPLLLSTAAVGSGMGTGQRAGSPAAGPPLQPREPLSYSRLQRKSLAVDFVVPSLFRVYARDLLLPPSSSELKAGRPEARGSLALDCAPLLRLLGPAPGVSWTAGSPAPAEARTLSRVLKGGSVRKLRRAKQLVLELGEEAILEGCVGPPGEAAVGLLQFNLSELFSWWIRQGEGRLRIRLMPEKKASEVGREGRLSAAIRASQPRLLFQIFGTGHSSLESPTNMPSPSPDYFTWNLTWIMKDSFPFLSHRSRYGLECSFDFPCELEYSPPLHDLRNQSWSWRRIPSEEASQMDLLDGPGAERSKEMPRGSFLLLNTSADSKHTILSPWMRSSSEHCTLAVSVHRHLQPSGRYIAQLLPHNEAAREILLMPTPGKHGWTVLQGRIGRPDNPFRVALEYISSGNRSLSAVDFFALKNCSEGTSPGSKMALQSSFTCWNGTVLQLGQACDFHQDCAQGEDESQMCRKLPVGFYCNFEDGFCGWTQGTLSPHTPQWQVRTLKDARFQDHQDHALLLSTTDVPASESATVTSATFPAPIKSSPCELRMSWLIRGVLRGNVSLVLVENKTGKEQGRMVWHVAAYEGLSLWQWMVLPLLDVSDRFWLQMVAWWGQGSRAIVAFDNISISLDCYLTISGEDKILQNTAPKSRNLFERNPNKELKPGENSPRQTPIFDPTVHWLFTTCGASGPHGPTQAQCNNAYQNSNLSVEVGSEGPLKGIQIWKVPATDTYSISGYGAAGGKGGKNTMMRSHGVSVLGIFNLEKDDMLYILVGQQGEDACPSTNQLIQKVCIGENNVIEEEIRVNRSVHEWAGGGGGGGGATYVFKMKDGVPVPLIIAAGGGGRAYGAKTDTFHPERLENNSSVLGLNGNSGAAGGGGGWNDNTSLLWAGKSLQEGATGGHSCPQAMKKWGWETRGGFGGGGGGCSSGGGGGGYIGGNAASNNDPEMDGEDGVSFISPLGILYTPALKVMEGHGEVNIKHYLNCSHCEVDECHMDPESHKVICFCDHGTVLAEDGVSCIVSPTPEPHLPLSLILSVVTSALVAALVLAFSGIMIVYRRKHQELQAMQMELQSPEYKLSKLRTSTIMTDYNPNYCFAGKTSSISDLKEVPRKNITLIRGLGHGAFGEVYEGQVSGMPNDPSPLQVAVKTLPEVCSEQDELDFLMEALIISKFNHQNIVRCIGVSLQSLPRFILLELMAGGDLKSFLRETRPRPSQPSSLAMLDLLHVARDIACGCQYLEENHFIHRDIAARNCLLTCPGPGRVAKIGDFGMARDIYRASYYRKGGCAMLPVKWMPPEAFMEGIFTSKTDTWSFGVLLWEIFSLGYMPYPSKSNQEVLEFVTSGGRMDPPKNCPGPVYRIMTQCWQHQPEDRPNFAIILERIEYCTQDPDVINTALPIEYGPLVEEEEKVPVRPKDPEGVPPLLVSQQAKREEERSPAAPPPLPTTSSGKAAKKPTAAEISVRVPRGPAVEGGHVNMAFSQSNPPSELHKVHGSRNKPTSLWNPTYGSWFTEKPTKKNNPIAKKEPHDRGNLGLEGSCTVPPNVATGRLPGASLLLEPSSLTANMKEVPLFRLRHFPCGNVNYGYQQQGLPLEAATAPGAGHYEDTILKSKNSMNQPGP

For `Cc1cnc(NC(=O)c2sc3ccccc3c2Cl)s1`, the AC50 [1] was 25.4 µM (active), the IC50 [2] was 3.95 µM (active) and the AC50 [3] was 3.25 µM (active).
For `O=C1C(O)=C/C(=N\c2ccccc2O)c2ccccc21`, the IC50 (HEK293 [4]) was > 20 µM (inactive) and the IC50 (HEK293 [5]) was > 20 µM (inactive).
In the case of `O=C1NC(=S)SC1=C1C(=O)Nc2ccc(Br)cc21`, the Ki [6] was > 2.51 µM (inactive), the Ki [7] was > 7.94 µM (inactive) and the Ki [8] was > 10 µM (inactive). For the same compound, the Ki [9] was > 1.26 µM (inactive), the Ki [10] was 0.631 µM (active) and the Ki [11] was 3.16 µM (active). The Ki [12] was 0.631 µM (active), the Ki [13] was > 3.16 µM (inactive) and the Ki [14] was > 1.58 µM (inactive). The Ki [15] was > 10 µM (inactive), the Ki [16] was > 6.31 µM (inactive) and the Ki [17] was > 2 µM (inactive). The Ki [18] was > 0.794 µM (inactive), the Ki [19] was > 7.94 µM (inactive) and the Ki [20] was > 6.31 µM (inactive). For the same compound, the Ki [21] was > 7.94 µM (inactive), the Ki [22] was > 1.58 µM (inactive) and the Ki [23] was > 7.94 µM (inactive). For the same compound, the Ki [24] was > 2.51 µM (inactive), the Ki [25] was > 1.26 µM (inactive) and the Ki [26] was > 0.631 µM (inactive).
For `Cc1ccc(Nc2cc(C)nn2-c2nc(C)cc(O)n2)cc1`, the EC50 (BJ) was 14 µM (active) and the EC50 [27] was > 32 µM (inactive).
